Experimental data from PMC5218480 (PLoS ONE, 2017).

Test system: MV-4-11 cells
Assay: Gene expression microarray analysis (Affymetrix PrimeView) and GSEA
Assay type: cell-based, human
Design: RFU PODN (11730768_x_at) / Fold change /veh PODN (11730768_x_at) / RFU LINC00158 (11744669_a_at) / Fold change /veh LINC00158 (11744669_a_at) / RFU DUSP10 (11751237_a_at) / Fold change /veh DUSP10 (11751237_a_at) / RFU ID3 (11757404_x_at) / Fold change /veh ID3 (11757404_x_at) / RFU PLEKHG5 (11737974_s_at) / Fold change /veh PLEKHG5 (11737974_s_at) / RFU LRRC4B (11730491_at) / Fold change /veh LRRC4B (11730491_at) / RFU GIMAP4 (11747438_a_at) / Fold change /veh GIMAP4 (11747438_a_at) / RFU KRT8 (11758183_x_at) / Fold change /veh KRT8 (11758183_x_at) / RFU CNN1 (11734310_a_at) / Fold change /veh CNN1 (11734310_a_at) / RFU VPS37D (11726825_at) / Fold change /veh VPS37D (11726825_at) / RFU C10orf10 (11716522_x_at) / Fold change /veh C10orf10 (11716522_x_at) / RFU KIR2DL2 /// KIR2DL4 /// KIR2DL5A /// KIR2DL5B /// KIR2DS1 /// KIR2DS2 /// KIR2DS3 /// KIR2DS4 /// KIR3DL3 /// KIR3DL3 /// KIR3DS1 (11738374_at) / Fold change /veh KIR2DL2 /// KIR2DL4 /// KIR2DL5A /// KIR2DL5B /// KIR2DS1 /// KIR2DS2 /// KIR2DS3 /// KIR2DS4 /// KIR3DL3 /// KIR3DL3 /// KIR3DS1 (11738374_at) / RFU C1QL1 (11718748_at) / Fold change /veh C1QL1 (11718748_at) / RFU TMPRSS4 (11747572_a_at) / Fold change /veh TMPRSS4 (11747572_a_at) / RFU HAMP (11756126_x_at) / Fold change /veh HAMP (11756126_x_at) / RFU RNFT2 (11725882_a_at) / Fold change /veh RNFT2 (11725882_a_at) / RFU NR4A2 (11747474_a_at) / Fold change /veh NR4A2 (11747474_a_at) / RFU ABCC12 (11746883_a_at) / Fold change /veh ABCC12 (11746883_a_at) / RFU TMEM136 (11760407_x_at) / Fold change /veh TMEM136 (11760407_x_at) / RFU CLDN22 /// WWC2 (11732394_at) / Fold change /veh CLDN22 /// WWC2 (11732394_at) / RFU HLA-DPB1 (11760878_x_at) / Fold change /veh HLA-DPB1 (11760878_x_at) / RFU SPINT1 (11716480_a_at) / Fold change /veh SPINT1 (11716480_a_at) / RFU GAP43 (11754022_s_at) / Fold change /veh GAP43 (11754022_s_at) / RFU A4GNT (11735810_at) / Fold change /veh A4GNT (11735810_at) / RFU PRB3 (11715151_x_at) / Fold change /veh PRB3 (11715151_x_at) / RFU TUBB4B (11761932_at) / Fold change /veh TUBB4B (11761932_at) / RFU CAPN14 (11732068_a_at) / Fold change /veh CAPN14 (11732068_a_at) / RFU TMCC2 (11721928_a_at) / Fold change /veh TMCC2 (11721928_a_at) / RFU IRGQ (11745062_a_at) / Fold change /veh IRGQ (11745062_a_at) / RFU FAM174B (11720279_a_at) / Fold change /veh FAM174B (11720279_a_at) / RFU TMPRSS4 (11748680_a_at) / Fold change /veh TMPRSS4 (11748680_a_at) / RFU FAM212B (11763350_a_at) / Fold change /veh FAM212B (11763350_a_at) / RFU PLEKHG5 (11743358_a_at) / Fold change /veh PLEKHG5 (11743358_a_at) / RFU ZSCAN30 (11745921_a_at) / Fold change /veh ZSCAN30 (11745921_a_at) / RFU CMKLR1 (11741424_a_at) / Fold change /veh CMKLR1 (11741424_a_at) / RFU LOC101060620 /// MAPK8IP1 (11723275_at) / Fold change /veh LOC101060620 /// MAPK8IP1 (11723275_at) / RFU SPTSSB (11747773_x_at) / Fold change /veh SPTSSB (11747773_x_at) / RFU PRSS12 (11739890_at) / Fold change /veh PRSS12 (11739890_at) / RFU BIN1 (11741810_x_at) / Fold change /veh BIN1 (11741810_x_at) / RFU WNT11 (11732464_a_at) / Fold change /veh WNT11 (11732464_a_at) / RFU C10orf10 (11716521_a_at) / Fold change /veh C10orf10 (11716521_a_at) / RFU C5orf56 (11738089_at) / Fold change /veh C5orf56 (11738089_at) / RFU CYB561 (11721691_x_at) / Fold change /veh CYB561 (11721691_x_at) / RFU ANKRD19P (11752326_a_at) / Fold change /veh ANKRD19P (11752326_a_at) / RFU OR2T12 /// OR2T33 /// OR2T8 (11738714_s_at) / Fold change /veh OR2T12 /// OR2T33 /// OR2T8 (11738714_s_at) / RFU VCAN (11748164_a_at) / Fold change /veh VCAN (11748164_a_at) / RFU JSRP1 (11732532_at) / Fold change /veh JSRP1 (11732532_at) / RFU KRTAP10-11 (11738290_x_at) / Fold change /veh KRTAP10-11 (11738290_x_at) / RFU MYO3A (11730013_a_at) / Fold change /veh MYO3A (11730013_a_at) / RFU EBF3 (11725865_a_at) / Fold change /veh EBF3 (11725865_a_at) / RFU CAMK2N1 (11719241_x_at) / Fold change /veh CAMK2N1 (11719241_x_at) / RFU C5orf56 (11738088_a_at) / Fold change /veh C5orf56 (11738088_a_at) / RFU OLFML3 (11715873_a_at) / Fold change /veh OLFML3 (11715873_a_at) / RFU LOC100653217 /// NTM (11731650_a_at) / Fold change /veh LOC100653217 /// NTM (11731650_a_at) / RFU MAPK11 (11762145_a_at) / Fold change /veh MAPK11 (11762145_a_at) / RFU FIZ1 (11724087_x_at) / Fold change /veh FIZ1 (11724087_x_at) / RFU OASL (11726364_x_at) / Fold change /veh OASL (11726364_x_at) / RFU SOX15 (11748057_x_at) / Fold change /veh SOX15 (11748057_x_at) / RFU CD79A (11719716_a_at) / Fold change /veh CD79A (11719716_a_at) / RFU HIST1H1D (11736915_at) / Fold change /veh HIST1H1D (11736915_at) / RFU CASKIN2 (11723855_a_at) / Fold change /veh CASKIN2 (11723855_a_at) / RFU LOC730098 (11760151_x_at) / Fold change /veh LOC730098 (11760151_x_at) / RFU OR4N2 (11742367_at) / Fold change /veh OR4N2 (11742367_at) / RFU PRRT2 (11749266_a_at) / Fold change /veh PRRT2 (11749266_a_at) / RFU SNX32 (11753110_a_at) / Fold change /veh SNX32 (11753110_a_at) / RFU CDHR5 (11726645_a_at) / Fold change /veh CDHR5 (11726645_a_at) / RFU RCAN1 (11760418_a_at) / Fold change /veh RCAN1 (11760418_a_at) / RFU FAM167A (11723789_a_at) / Fold change /veh FAM167A (11723789_a_at) / RFU FAM26E (11764081_at) / Fold change /veh FAM26E (11764081_at) / RFU ISYNA1 (11749810_s_at) / Fold change /veh ISYNA1 (11749810_s_at) / RFU ACY1 (11761880_at) / Fold change /veh ACY1 (11761880_at) / RFU 11764098_at / Fold change /veh 11764098_at / RFU SAMD14 (11745864_x_at) / Fold change /veh SAMD14 (11745864_x_at) / RFU NPB (11741838_a_at) / Fold change /veh NPB (11741838_a_at) / RFU TMPRSS6 (11731388_a_at) / Fold change /veh TMPRSS6 (11731388_a_at) / RFU KRTAP10-2 (11738614_at) / Fold change /veh KRTAP10-2 (11738614_at) / RFU ARHGAP8 /// PRR5-ARHGAP8 (11727945_x_at) / Fold change /veh ARHGAP8 /// PRR5-ARHGAP8 (11727945_x_at) / RFU KRTAP5-7 /// NADSYN1 (11734609_at) / Fold change /veh KRTAP5-7 /// NADSYN1 (11734609_at) / RFU RASL12 (11751679_a_at) / Fold change /veh RASL12 (11751679_a_at) / RFU CDKN2B (11736163_a_at) / Fold change /veh CDKN2B (11736163_a_at) / RFU PRF1 (11729649_at) / Fold change /veh PRF1 (11729649_at) / RFU, ZNF638 /// ZNF638-IT1 / Fold change vs veh, ZNF638 /// ZNF638-IT1 / RFU, PANK3 / Fold change vs veh, PANK3 / RFU, SH3YL1 / Fold change vs veh, SH3YL1 / RFU, ZEB2 / Fold change vs veh, ZEB2 / RFU, NRIP1 / Fold change vs veh, NRIP1 / RFU, PTTG1IP / Fold change vs veh, PTTG1IP / RFU, CAPN2 / Fold change vs veh, CAPN2 / RFU, MED14 / Fold change vs veh, MED14 / RFU, SNORA58 / Fold change vs veh, SNORA58 / RFU, C1orf63 / Fold change vs veh, C1orf63 / RFU, LRRFIP1 / Fold change vs veh, LRRFIP1 / RFU, NDUFAF7 / Fold change vs veh, NDUFAF7 / RFU, SLC12A2 / Fold change vs veh, SLC12A2 / RFU, IBTK / Fold change vs veh, IBTK / RFU, ESF1 / Fold change vs veh, ESF1 / Fold change vs veh, TMEM50B / RFU, TAOK1 / Fold change vs veh, TAOK1 / RFU, ACBD3 / Fold change vs veh, ACBD3 / RFU, TMA16 / Fold change vs veh, TMA16 / RFU, RWDD3 / Fold change vs veh, RWDD3 / RFU, BCAT1 / Fold change vs veh, BCAT1 / RFU, EDEM3 / Fold change vs veh, EDEM3 / RFU, TMEM33 / Fold change vs veh, TMEM33 / RFU, WDR75 / Fold change vs veh, WDR75 / RFU, AHCTF1 / Fold change vs veh, AHCTF1 / RFU, TFRC / Fold change vs veh, TFRC / RFU, ZDHHC17 / Fold change vs veh, ZDHHC17 / RFU, NOM1 / Fold change vs veh, NOM1 / RFU, ARL8B / Fold change vs veh, ARL8B / RFU, ZBTB11 / Fold change vs veh, ZBTB11 / RFU, TAMM41 / Fold change vs veh, TAMM41 / RFU, KIAA1704 /// LOC100996395 / Fold change vs veh, KIAA1704 /// LOC100996395 / RFU, ING1 / Fold change vs veh, ING1 / RFU, TRMT61B / Fold change vs veh, TRMT61B / RFU, FUBP3 / Fold change vs veh, FUBP3 / RFU, TP53 / Fold change vs veh, TP53 / RFU, TNKS2 / Fold change vs veh, TNKS2 / RFU, ZFP14 / Fold change vs veh, ZFP14 / RFU, ACTR2 / Fold change vs veh, ACTR2 / RFU, PPP3R1 / Fold change vs veh, PPP3R1 / RFU, PIK3R1 / Fold change vs veh, PIK3R1 / RFU, HNRNPA1 / Fold change vs veh, HNRNPA1 / RFU, RNF170 / Fold change vs veh, RNF170 / RFU, ZNF28 / Fold change vs veh, ZNF28 / RFU, RNGTT / Fold change vs veh, RNGTT / RFU, OGT / Fold change vs veh, OGT / RFU, BRD1 / Fold change vs veh, BRD1 / RFU, MARS / Fold change vs veh, MARS / RFU, ZNF655 / Fold change vs veh, ZNF655 / RFU, FAHD1 / Fold change vs veh, FAHD1 / RFU, BDP1 / Fold change vs veh, BDP1 / RFU, LRRCC1 / Fold change vs veh, LRRCC1 / RFU, ARID1A / Fold change vs veh, ARID1A / RFU, ZNF146 / Fold change vs veh, ZNF146 / RFU, ZNF330 / Fold change vs veh, ZNF330 / RFU, GPN3 / Fold change vs veh, GPN3 / RFU, C9orf123 / Fold change vs veh, C9orf123 / RFU, N4BP2L2 / Fold change vs veh, N4BP2L2 / RFU, ARFIP1 / Fold change vs veh, ARFIP1 / RFU, FAM179B / Fold change vs veh, FAM179B / RFU, BCL10 / Fold change vs veh, BCL10 / RFU, UHRF1BP1L / Fold change vs veh, UHRF1BP1L / RFU, BET1 / Fold change vs veh, BET1 / RFU, CNOT2 / Fold change vs veh, CNOT2 / RFU, ZNF268 / Fold change vs veh, ZNF268 / Fold change vs veh, ZNF507 / RFU, DGCR2 / Fold change vs veh, DGCR2 / RFU, WDSUB1 / Fold change vs veh, WDSUB1 / Fold change vs veh, HSP90B1 /// MIR3652 / RFU, ADSS / Fold change vs veh, ADSS / RFU, GK / Fold change vs veh, GK / RFU, ZNF148 / Fold change vs veh, ZNF148 / RFU, TAF9 / Fold change vs veh, TAF9 / RFU, SLC1A5 / Fold change vs veh, SLC1A5 / RFU, SLMO2 / Fold change vs veh, SLMO2 / RFU, ABCC4 / Fold change vs veh, ABCC4 / RFU, LOC101060439 /// RAP1B / Fold change vs veh, LOC101060439 /// RAP1B / RFU, RFX7 / Fold change vs veh, RFX7 / RFU, GTPBP10 / Fold change vs veh, GTPBP10 / RFU, CNEP1R1 / Fold change vs veh, CNEP1R1 / RFU, BIVM-ERCC5 /// ERCC5 / Fold change vs veh, BIVM-ERCC5 /// ERCC5 / RFU, ILF3 / Fold change vs veh, ILF3 / RFU 11762660_at / Fold change /veh 11762660_at / RFU VCAN (11757783_s_at) / Fold change /veh VCAN (11757783_s_at) / RFU DDX43 (11728927_at) / Fold change /veh DDX43 (11728927_at) / RFU KRT8 (11758188_x_at) / Fold change /veh KRT8 (11758188_x_at) / RFU NKD1 (11759106_at) / Fold change /veh NKD1 (11759106_at) / RFU SRD5A1 (11742802_a_at) / Fold change /veh SRD5A1 (11742802_a_at) / RFU TPSAB1 /// TPSB2 (11721975_s_at) / Fold change /veh TPSAB1 /// TPSB2 (11721975_s_at) / RFU GSTM3 (11746129_a_at) / Fold change /veh GSTM3 (11746129_a_at) / RFU IL23R (11737362_x_at) / Fold change /veh IL23R (11737362_x_at) / RFU TMEM51 (11727254_a_at) / Fold change /veh TMEM51 (11727254_a_at) / RFU PIWIL2 (11732686_x_at) / Fold change /veh PIWIL2 (11732686_x_at) / RFU ORM1 (11744905_x_at) / Fold change /veh ORM1 (11744905_x_at) / RFU CCDC152 (11743942_at) / Fold change /veh CCDC152 (11743942_at) / RFU ECM1 (11717891_a_at) / Fold change /veh ECM1 (11717891_a_at) / RFU IL23R (11748794_a_at) / Fold change /veh IL23R (11748794_a_at) / RFU TNFAIP8L3 (11732012_x_at) / Fold change /veh TNFAIP8L3 (11732012_x_at) / RFU MBOAT4 (11741988_at) / Fold change /veh MBOAT4 (11741988_at) / RFU 11764193_at / Fold change /veh 11764193_at / RFU TMEM53 (11763286_at) / Fold change /veh TMEM53 (11763286_at) / RFU MAGEB2 (11727129_at) / Fold change /veh MAGEB2 (11727129_at) / RFU TMEM200A (11744735_a_at) / Fold change /veh TMEM200A (11744735_a_at) / RFU CCDC152 (11751479_a_at) / Fold change /veh CCDC152 (11751479_a_at) / RFU FAM211A (11726209_a_at) / Fold change /veh FAM211A (11726209_a_at) / RFU RGS16 (11746705_a_at) / Fold change /veh RGS16 (11746705_a_at) / RFU VCAN (11755009_s_at) / Fold change /veh VCAN (11755009_s_at) / RFU RHOB (11743442_s_at) / Fold change /veh RHOB (11743442_s_at) / RFU RGS16 (11720943_a_at) / Fold change /veh RGS16 (11720943_a_at) / RFU RGS16 (11720944_at) / Fold change /veh RGS16 (11720944_at) / RFU, VPS4B / Fold change vs veh, VPS4B / RFU, CREB1 / Fold change vs veh, CREB1 / RFU, DNAJC13 / Fold change vs veh, DNAJC13 / RFU, GNAQ / Fold change vs veh, GNAQ / RFU, CDK5R1 / Fold change vs veh, CDK5R1 / RFU, ZRANB3 / Fold change vs veh, ZRANB3 / RFU, CUL4A / Fold change vs veh, CUL4A / RFU, CCNY / Fold change vs veh, CCNY / RFU, UFL1 / Fold change vs veh, UFL1 / RFU, COG3 / Fold change vs veh, COG3 / RFU, DIAPH2 / Fold change vs veh, DIAPH2 / RFU, SKA2 / Fold change vs veh, SKA2 / RFU, AFF3 / Fold change vs veh, AFF3 / RFU, LMF1 / Fold change vs veh, LMF1 / RFU, IPO11 / Fold change vs veh, IPO11 / RFU, DFFB / Fold change vs veh, DFFB / RFU, FOXP1 / Fold change vs veh, FOXP1 / RFU, CARD8 / Fold change vs veh, CARD8 / RFU, STRN3 / Fold change vs veh, STRN3 / RFU, ADK / Fold change vs veh, ADK / RFU, RASSF2 / Fold change vs veh, RASSF2 / RFU, WIPF1 / Fold change vs veh, WIPF1 / RFU, LARP1B / Fold change vs veh, LARP1B / RFU, RASA1 / Fold change vs veh, RASA1 / RFU, RB1 / Fold change vs veh, RB1 / RFU, PPFIA1 / Fold change vs veh, PPFIA1 / RFU, MAT2A / Fold change vs veh, MAT2A / RFU, CCT5 / Fold change vs veh, CCT5 / RFU, WDR92 / Fold change vs veh, WDR92 / RFU, CUX1 / Fold change vs veh, CUX1 / RFU, TTC7A / Fold change vs veh, TTC7A / RFU, TMEM135 / Fold change vs veh, TMEM135 / RFU, DEPTOR / Fold change vs veh, DEPTOR / RFU, CPM / Fold change vs veh, CPM / RFU, DNAJB6 / Fold change vs veh, DNAJB6 / RFU, CACNA2D3 / Fold change vs veh, CACNA2D3 / RFU, DTX4 / Fold change vs veh, DTX4 / RFU, TFCP2 / Fold change vs veh, TFCP2 / RFU, GMCL1 /// GMCL1P1 / Fold change vs veh, GMCL1 /// GMCL1P1 / RFU, AEBP2 / Fold change vs veh, AEBP2 / RFU, SNHG1 /// SNORD22 /// SNORD25 /// SNORD26 /// SNORD27 /// SNORD28 /// SNORD29 /// SNORD31 / Fold change vs veh, SNHG1 /// SNORD22 /// SNORD25 /// SNORD26 /// SNORD27 /// SNORD28 /// SNORD29 /// SNORD31 / Fold change (Aza/veh), C12orf56 (ProbeSet 11735607_a_at) / Fold change (ACY-1035/veh), C12orf56 (ProbeSet 11735607_a_at) / Fold change (Aza/veh), FGFR1OP (ProbeSet 11751329_s_at) / Fold change (ACY-1035/veh), FGFR1OP (ProbeSet 11751329_s_at) / Fold change (Aza/veh), VPS36 (ProbeSet 11739960_a_at) / Fold change (ACY-1035/veh), VPS36 (ProbeSet 11739960_a_at) / RFU SYPL1 (11715823_x_at) / Fold change /veh SYPL1 (11715823_x_at) / RFU IGFBP7 (11715501_s_at) / Fold change /veh IGFBP7 (11715501_s_at) / RFU REEP3 (11722064_at) / Fold change /veh REEP3 (11722064_at) / RFU IGLL1 (11728026_x_at) / Fold change /veh IGLL1 (11728026_x_at): dose or concentration left out as unconfirmed
Conditions: ProbeSet 11753055_s_at; LIST B

## Nc1ncn([C@@H]2O[C@H](CO)[C@@H](O)[C@H]2O)c(=O)n1 [azacitidine]
  RFU, LOC101060439 /// RAP1B: 558.59 RFU
